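The compound was tested at five concentrations on cells cultured in 96-well plates, with a 48-hour exposure period. GI50 marks 50% less growth. TGI: concentration producing complete growth inhibition.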
Assays:
Experiment in all cases: NCI-60 cell line screen, 48 h
786-0 renal = system: 786-0 renal
NCI-H23 lung = system: NCI-H23 lung
UACC-62 melanoma = system: UACC-62 melanoma
RXF 393 renal = system: RXF 393 renal

O=C(Nc1ccc(Cl)cc1)c1cc(S(=O)(=O)Nc2n[nH]c(=O)[nH]2)c(SSc2cc(Cl)c(C(=O)Nc3ccc(Cl)cc3)cc2S(=O)(=O)Nc2n[nH]c(=O)[nH]2)cc1Cl
TGI (786-0 renal): > 100 µM
TGI (NCI-H23 lung): > 100 µM
TGI (UACC-62 melanoma): > 100 µM

O=C1C(NS(=O)(=O)c2ccccc2)=C(n2cnc3ccccc32)C(=O)c2ccccc21
TGI (786-0 renal): > 100 µM
TGI (NCI-H23 lung): > 100 µM
TGI (RXF 393 renal): 98.2 µM
TGI (UACC-62 melanoma): > 100 µM

COC(=O)C12CCC(C(=O)OC)(Cc3c(c4ccccc4n3S(=O)(=O)c3ccccc3)C1)C2=O (stereo not given)
TGI (786-0 renal): > 69.6 µM
TGI (NCI-H23 lung): > 100 µM
TGI (RXF 393 renal): 24.1 µM
TGI (UACC-62 melanoma): > 100 µM

CCOC(=O)/C(C(=S)NC)=C(/N)N1CCCC1
TGI (786-0 renal): > 100 µM
TGI (NCI-H23 lung): > 100 µM
TGI (RXF 393 renal): > 100 µM
TGI (UACC-62 melanoma): > 100 µM

CN1CCc2c(sc3nc(Nc4ccccc4)n(N)c(=O)c23)C1
TGI (786-0 renal): > 100 µM
TGI (NCI-H23 lung): > 100 µM
TGI (RXF 393 renal): > 100 µM
TGI (UACC-62 melanoma): > 100 µM

CCCS(=O)(=O)O
TGI (NCI-H23 lung): > 100 µM
TGI (RXF 393 renal): > 100 µM
TGI (UACC-62 melanoma): > 100 µM

O=c1oc2ncccc2n1Cc1ccc([N+](=O)[O-])cc1
TGI (786-0 renal): > 100 µM
TGI (NCI-H23 lung): > 100 µM
TGI (RXF 393 renal): > 100 µM
TGI (UACC-62 melanoma): > 100 µM

CC(=O)OCC1C(C(C)OC(C)=O)CCC2C1CCC1(C)C(OC(C)=O)CCC21 (stereo not given)
TGI (786-0 renal): 49.5 µM
TGI (NCI-H23 lung): 76.1 µM
TGI (UACC-62 melanoma): 26.3 µM

CN(Cc1cnc2nc(N)nc(N)c2n1)c1ccc(C(=O)NC(CCS(=O)(=O)O)C(=O)O)cc1 (stereo not given)
TGI (NCI-H23 lung): > 100 µM
TGI (UACC-62 melanoma): > 100 µM

C=CCN1CCC(OC(=O)C(O)(/C=C\CC)C2CCCC2)CC1 (stereo not given)
TGI (786-0 renal): > 100 µM
TGI (NCI-H23 lung): > 100 µM
TGI (RXF 393 renal): > 100 µM
TGI (UACC-62 melanoma): > 100 µM

c1ccc(Cc2cccc3cc(-c4ccc(-c5ccccc5)cc4)[nH]c23)cc1
TGI (786-0 renal): > 100 µM
TGI (NCI-H23 lung): > 100 µM
TGI (UACC-62 melanoma): > 100 µM

C/C(CC(O)(C(F)(F)F)C(F)(F)F)=N\N
TGI (786-0 renal): > 10 µM
TGI (NCI-H23 lung): > 10 µM
TGI (RXF 393 renal): > 10 µM
TGI (UACC-62 melanoma): > 10 µM

C=C1c2nc3ccccc3n2C=C(c2ccc(Cl)cc2)N1c1ccc(OCCN2CCOCC2)cc1
TGI (786-0 renal): > 100 µM
TGI (NCI-H23 lung): > 100 µM
TGI (RXF 393 renal): > 100 µM
TGI (UACC-62 melanoma): 99.6 µM

O=[N+]([O-])c1cc2n[nH]nc2c2nonc12
TGI (786-0 renal): > 100 µM
TGI (NCI-H23 lung): 83.3 µM

COc1cc(/C=C2\C(=O)N(c3cccc(Cl)c3)C(c3ccccc3)S2(=O)=O)cc(OC)c1OC (stereo not given)
TGI (786-0 renal): > 100 µM
TGI (NCI-H23 lung): > 100 µM
TGI (RXF 393 renal): > 100 µM
TGI (UACC-62 melanoma): > 100 µM

C=C1CC(OC(C)=O)/C=C(/C)CCC(C(C)(C)O)CC1O (stereo not given)
TGI (786-0 renal): > 100 µM
TGI (NCI-H23 lung): > 100 µM
TGI (RXF 393 renal): > 100 µM
TGI (UACC-62 melanoma): > 100 µM

CSc1ccc2c(c1)c(CCN)c(C)n2Cc1ccc(Cl)c(Cl)c1
GI50 (NCI-H23 lung): 1.73 µM
TGI (NCI-H23 lung): 3.3 µM
GI50 (RXF 393 renal): 1.66 µM
TGI (RXF 393 renal): 3.12 µM

O=C(O)CC(NC(=O)C(F)(F)F)C(=O)NC1Cc2ccccc2OC1=O (stereo not given)
TGI (786-0 renal): > 100 µM
TGI (NCI-H23 lung): > 100 µM
TGI (RXF 393 renal): > 100 µM
TGI (UACC-62 melanoma): > 100 µM

CC(C)OP(=O)(OC(C)C)C(C(F)(F)F)C(F)(F)F
TGI (786-0 renal): > 100 µM
TGI (NCI-H23 lung): > 100 µM
TGI (RXF 393 renal): > 100 µM
TGI (UACC-62 melanoma): > 100 µM

NS(=O)(=O)c1nnc(NC(=O)CCC(=O)O)s1
TGI (786-0 renal): > 100 µM
TGI (NCI-H23 lung): > 100 µM
TGI (RXF 393 renal): > 100 µM
TGI (UACC-62 melanoma): > 100 µM

COc1cc2c(cc1C)NC(=O)/C2=C/c1c(Cl)[nH]c2cc(C)c(OC)cc12
TGI (786-0 renal): 18.2 µM
TGI (NCI-H23 lung): 11.6 µM
TGI (RXF 393 renal): 22.1 µM
TGI (UACC-62 melanoma): 19.5 µM

COc1ccc(C2CCc3nc4nc(N)nc(N)c4cc3C2)cc1 (stereo not given)
TGI (786-0 renal): 17 µM
TGI (RXF 393 renal): 37.2 µM
TGI (UACC-62 melanoma): > 100 µM

CS(C)(=O)=N/C=C\C(=O)C(Cl)(Cl)Cl
TGI (786-0 renal): > 100 µM
TGI (NCI-H23 lung): > 100 µM
TGI (RXF 393 renal): > 100 µM
TGI (UACC-62 melanoma): > 100 µM

O=C1CCc2c3c(c4c([nH]c5ccccc54)c2CC1)C(=O)NC3=O
TGI (786-0 renal): > 100 µM
TGI (NCI-H23 lung): > 100 µM
TGI (RXF 393 renal): 32.2 µM
TGI (UACC-62 melanoma): 42.8 µM

Nc1[nH]c(=O)nc2sc3c(c12)CCCC3
TGI (786-0 renal): > 100 µM
TGI (NCI-H23 lung): > 100 µM
TGI (RXF 393 renal): > 100 µM
TGI (UACC-62 melanoma): > 100 µM

O=C(CSc1nc2ccc(I)cc2c(=O)n1Cc1ccccc1)N/N=C/c1ccccc1
TGI (786-0 renal): 32.6 µM
TGI (NCI-H23 lung): 71.3 µM
TGI (RXF 393 renal): 26.7 µM
TGI (UACC-62 melanoma): > 100 µM

CCCCCCc1nn2c(-c3ccc(C)cc3)nnc2s1
TGI (786-0 renal): > 100 µM
TGI (NCI-H23 lung): > 100 µM
TGI (RXF 393 renal): > 100 µM
TGI (UACC-62 melanoma): > 100 µM

NC(=O)c1cnc2sc3ccccc3n2c1=O
TGI (786-0 renal): > 100 µM
TGI (RXF 393 renal): > 100 µM
TGI (UACC-62 melanoma): > 100 µM

CCOC(=O)C(Cc1ccc2c(c1)CCC2)(Cc1ccc2c(c1)CCC2)C(=O)OCC
TGI (786-0 renal): > 100 µM
TGI (NCI-H23 lung): > 100 µM
TGI (RXF 393 renal): 89.9 µM
